For 19 compounds, T/C results are on record in PubChem BioAssay AID192 (DTP/NCI, 2004).

The test system of this test is BDF1 mice, B16 melanoma ip, median survival T/C. The test is described as follows: NCI In Vivo Anticancer Drug Screen. Data for tumor model B16 Melanoma (intraperitoneal) in B6D2F1 (BDF1) mice. The settings on record: endpoint: median survival time, higher = longer survival. An outline of the steps: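 Read-out: survival or tumor size, given as treated/control ratio. Controls received vehicle only; animals bore transplantable tumors.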

[1] abbreviates: dose: 6.25 mg/kg/injection, schedule: Q01DX009 (ip), vehicle: saline.
Setting [2] is: dose: 100.0 mg/kg/injection, schedule: Q01DX009 (ip), vehicle: saline with Tween-80.
Where [3] appears, read: dose: 200.0 mg/kg/injection, schedule: Q01DX009 (ip), vehicle: saline with Tween-80.
Where [4] appears, read: dose: 400.0 mg/kg/injection, schedule: Q01DX009 (ip), vehicle: saline with Tween-80.
[5] abbreviates: dose: 25.0 mg/kg/injection, schedule: Q01DX009 (ip), vehicle: saline.
Setting [6] is: dose: 100.0 mg/kg/injection, schedule: Q01DX009 (ip), vehicle: Klucel (hydroxypropylcellulose) (HPC).
Where [7] appears, read: dose: 6.25 mg/kg/injection, schedule: Q01DX009 (ip), vehicle: Klucel (hydroxypropylcellulose) (HPC).
Setting [8] is: dose: 12.5 mg/kg/injection, schedule: Q01DX009 (ip), vehicle: Klucel (hydroxypropylcellulose) (HPC).
The mark [9] stands for this setting: dose: 25.0 mg/kg/injection, schedule: Q01DX009 (ip), vehicle: Klucel (hydroxypropylcellulose) (HPC).
[10] abbreviates: dose: 50.0 mg/kg/injection, schedule: Q01DX009 (ip), vehicle: Klucel (hydroxypropylcellulose) (HPC).
Where [11] appears, read: dose: 50.0 mg/kg/injection, schedule: Q01DX009 (ip), vehicle: saline with Tween-80.
[12] abbreviates: dose: 12.5 mg/kg/injection, schedule: Q01DX009 (ip), vehicle: saline.
[13] abbreviates: dose: 50.0 mg/kg/injection, schedule: Q01DX009 (ip), vehicle: saline.
[14] abbreviates: dose: 100.0 mg/kg/injection, schedule: Q01DX009 (ip), vehicle: saline.
The mark [15] stands for this setting: dose: 100.0 mg/kg/injection, schedule: Q04DX003 (ip), vehicle: saline.
[16] abbreviates: dose: 200.0 mg/kg/injection, schedule: Q04DX003 (ip), vehicle: saline.

Values joined by “and” are separate entries in the source; they are usually repeats but may differ in a detail not shown here. Equal entries are not always repeated. Inconclusive results and toxic doses are left out.

As for `O=C(O)CCCc1ccc(N(CCCl)CCCl)cc1`, the T/C reads like this: (dose: 0.37 mg/kg/injection, schedule: Q01DX009 (ip), vehicle: Klucel (hydroxypropylcellulose) (HPC)) 100 % of control; (dose: 0.5 mg/kg/injection, schedule: Q01DX009 (ip), vehicle: Klucel (hydroxypropylcellulose) (HPC)) 93 % of control and 104 % of control; (dose: 1.0 mg/kg/injection, schedule: Q01DX009 (ip), vehicle: Klucel (hydroxypropylcellulose) (HPC)) 101 % of control and 104 % of control and 117 % of control; (dose: 1.5 mg/kg/injection, schedule: Q01DX009 (ip), vehicle: Klucel (hydroxypropylcellulose) (HPC)) 88 % of control and 89 % of control; (dose: 1.88 mg/kg/injection, schedule: Q01DX009 (ip), vehicle: Klucel (hydroxypropylcellulose) (HPC)) 112 % of control; (dose: 2.0 mg/kg/injection, schedule: Q01DX009 (ip), vehicle: Klucel (hydroxypropylcellulose) (HPC)) 100 % of control and 107 % of control and 109 % of control. The T/C reads like this: (dose: 2.0 mg/kg/injection, schedule: Q01DX017 (ip), vehicle: saline) 109 % of control; (dose: 3.0 mg/kg/injection, schedule: Q01DX009 (ip), vehicle: Klucel (hydroxypropylcellulose) (HPC)) 86 % of control and 87 % of control; (dose: 3.13 mg/kg/injection, schedule: Q01DX009 (ip), vehicle: saline) 100 % of control; (dose: 3.75 mg/kg/injection, schedule: Q01DX009 (ip), vehicle: Klucel (hydroxypropylcellulose) (HPC)) 110 % of control; (dose: 4.0 mg/kg/injection, schedule: Q01DX009 (ip), vehicle: Klucel (hydroxypropylcellulose) (HPC)) 108 % of control and 109 % of control and 118 % of control; (dose: 4.0 mg/kg/injection, schedule: Q01DX009 (ip), vehicle: saline) 104 % of control. Besides, the T/C reads like this: (dose: 4.0 mg/kg/injection, schedule: Q01DX017 (ip), vehicle: saline) 121 % of control; (dose: 6.0 mg/kg/injection, schedule: Q01DX009 (ip), vehicle: Klucel (hydroxypropylcellulose) (HPC)) 89 % of control and 118 % of control; under setting [1], 104 % of control; (dose: 7.5 mg/kg/injection, schedule: Q01DX009 (ip), vehicle: Klucel (hydroxypropylcellulose) (HPC)) 116 % of control; (dose: 8.0 mg/kg/injection, schedule: Q01DX001 (ip), vehicle: saline) 95 % of control; (dose: 8.0 mg/kg/injection, schedule: Q01DX009 (ip), vehicle: Klucel (hydroxypropylcellulose) (HPC)) 111 % of control and 120 % of control. The T/C by setting is: (dose: 8.0 mg/kg/injection, schedule: Q01DX009 (ip), vehicle: saline) 119 % of control; (dose: 8.0 mg/kg/injection, schedule: Q04DX003 (ip), vehicle: saline) 122 % of control; (dose: 12.0 mg/kg/injection, schedule: Q01DX009 (ip), vehicle: Klucel (hydroxypropylcellulose) (HPC)) 100 % of control; (dose: 16.0 mg/kg/injection, schedule: Q01DX001 (ip), vehicle: saline) 118 % of control; (dose: 16.0 mg/kg/injection, schedule: Q01DX009 (ip), vehicle: saline) 121 % of control; (dose: 16.0 mg/kg/injection, schedule: Q04DX003 (ip), vehicle: saline) 122 % of control.
For `OCc1ccccc1`, the T/C by setting is: under setting [2], 94 % of control; under setting [3], 100 % of control; under setting [4], 108 % of control.
On to `CCN(CC)CCSC(=O)C(O)(c1ccccc1)C1CCCC1` (stereo not drawn), for which, under setting [5], the T/C is 124 % of control.
`COC1=CC(=O)N(C(=O)C2CSC(C(CO)NC(=O)c3csc(/C=N/O)n3)=N2)C1` (stereo not drawn): the T/C runs as follows: under setting [6], 97 % of control; (dose: 400.0 mg/kg/injection, schedule: Q01DX009 (ip), vehicle: Klucel (hydroxypropylcellulose) (HPC)) 106 % of control.
Regarding `COc1c2ccoc2nc2c(OC)c3c(cc12)OCO3`, the T/C runs as follows: under setting [7], 89 % of control; under setting [8], 100 % of control; under setting [9], 95 % of control; under setting [10], 92 % of control.
Take `O=C(O)c1cc(-c2ccc(Cl)cc2)nc2c(-c3ccccc3)cccc12`: the T/C is 87 % of control (dose: 12.5 mg/kg/injection, schedule: Q01DX009 (ip), vehicle: saline with Tween-80); 105 % of control (dose: 25.0 mg/kg/injection, schedule: Q01DX009 (ip), vehicle: saline with Tween-80); 87 % of control and 94 % of control under setting [11]; 86 % of control under setting [2]; 87 % of control under setting [3].
As to `C#CC(O)(/C=C\Cl)CC` (stereo not drawn), the T/C by setting is: under setting [1], 110 % of control; under setting [12], 102 % of control; under setting [5], 100 % of control; under setting [13], 110 % of control; under setting [14], 115 % of control.
For `CCc1ccc(C(=O)CCCCl)cc1`, the T/C is, setting by setting: under setting [11], 102 % of control; under setting [2], 100 % of control; under setting [3], 109 % of control.
Take `CCN(CC)c1nc(Cl)nc(NC(C)C)n1`: the T/C is, setting by setting: under setting [11], 95 % of control; under setting [2], 97 % of control; under setting [3], 89 % of control.
On to `CC(Cc1ccccc1)NC(C#N)c1ccccc1` (stereo not drawn), for which the T/C is 100 % of control under setting [7], 87 % of control under setting [8] and 90 % of control under setting [9].
As to `CN(C)CC(C(=O)c1ccc(Br)cc1)C(Br)c1ccccc1` (stereo not drawn), the T/C is, setting by setting: (dose: 5.0 mg/kg/injection, schedule: Q01DX009 (ip), vehicle: saline with Tween-80) 101 % of control; (dose: 10.0 mg/kg/injection, schedule: Q01DX009 (ip), vehicle: saline with Tween-80) 108 % of control; (dose: 20.0 mg/kg/injection, schedule: Q01DX009 (ip), vehicle: saline with Tween-80) 101 % of control; (dose: 40.0 mg/kg/injection, schedule: Q01DX009 (ip), vehicle: saline with Tween-80) 111 % of control.
Take `O=C(CBr)c1ccc(F)cc1`: the T/C (dose: 3.12 mg/kg/injection, schedule: Q01DX009 (ip), vehicle: Klucel (hydroxypropylcellulose) (HPC)) is 106 % of control; the T/C under setting [7] is 91 % of control; the T/C under setting [8] was 99 % of control.
Regarding `COc1cc(NC(=O)CN(CCCl)CCCl)cc(OC)c1OC`, the T/C is 170 % of control under setting [2] and 161 % of control under setting [4].
With `ClC(Cl)(Cl)c1ccc(C(Cl)(Cl)Cl)cc1`, the T/C runs as follows: (dose: 50.0 mg/kg/injection, schedule: Q04DX003 (ip), vehicle: saline) 102 % of control; under setting [15], 95 % of control; under setting [16], 95 % of control.
Turning to `CCC(CO)NC(=O)C1C=C2c3cccc4[nH]cc(c34)CC2N(C)C1` (stereo not drawn), the T/C under setting [7] is 93 % of control; the T/C under setting [8] is 98 % of control; the T/C under setting [9] is 91 % of control; the T/C under setting [10] was 86 % of control; the T/C under setting [6] is 86 % of control; the T/C (dose: 200.0 mg/kg/injection, schedule: Q01DX009 (ip), vehicle: Klucel (hydroxypropylcellulose) (HPC)) is 111 % of control.
As for `NC(Cc1cnc[nH]1)C(=O)O` (stereo not drawn) (tested in a mixture with another compound), the T/C was 106 % of control under setting [14]; 104 % of control under setting [15]; 100 % of control (dose: 200.0 mg/kg/injection, schedule: Q01DX009 (ip), vehicle: saline); 90 % of control under setting [16]; 100 % of control (dose: 400.0 mg/kg/injection, schedule: Q01DX009 (ip), vehicle: saline); 102 % of control (dose: 400.0 mg/kg/injection, schedule: Q04DX003 (ip), vehicle: saline).
On to `CCC[CH2][Sn]([CH2]CCC)([S]C#N)[S]C#N`, for which the T/C by setting is: (dose: 0.75 mg/kg/injection, schedule: Q01DX009 (ip), vehicle: saline with Tween-80) 98 % of control; (dose: 1.5 mg/kg/injection, schedule: Q01DX009 (ip), vehicle: saline with Tween-80) 101 % of control; (dose: 3.0 mg/kg/injection, schedule: Q01DX009 (ip), vehicle: saline with Tween-80) 98 % of control.
Take `CC(N)Cc1ccc2c(c1)OCO2` (stereo not drawn): the T/C (dose: 3.12 mg/kg/injection, schedule: Q01DX009 (ip), vehicle: saline) is 119 % of control; the T/C under setting [1] is 116 % of control; the T/C under setting [12] was 102 % of control; the T/C under setting [5] is 108 % of control; the T/C under setting [13] is 116 % of control.
Turning to `CNC1C(O)C(NC)C2OC3(O)C(=O)CC(C)OC3OC2C1O` (stereo not drawn), the T/C under setting [5] is 95 % of control, the T/C under setting [13] was 100 % of control and the T/C under setting [14] is 109 % of control.
